Experimental findings from article PMC9481570, “A small molecule antagonist of SMN disrupts the interaction between SMN and RNAP II” (Nature Communications, 2022) are described below.

In data set [1] the target is T1, SMN_Y127F (Homo sapiens, UniProt Q16637, Y127F).
T1 construct: cloned into pET28-MHL vector: SMN (aa 82–147); His (N, cleaved yes); made in house; host or cells: E. coli BL21 (DE3) Codon plus RIL
In words: ITC binding to SMN Tudor mutant Y127F. Conditions: Fig. 3d. The text has this:
(§1) The coding DNA fragments of following Tudor domains were cloned into pET28-MHL vector: SMN (aa 82–147), UHRF1 (aa 126–285), SMNDC1 (aa 53–130), TDRD3 (aa 554–611), SND1 (aa 650–910), TDRD2 (aa 327–420), FXR1 (aa 2–132), PHF1 (aa 28–87), SGF29 (aa 115–293), JMJD2A (aa 897–1101), 53BP1 (aa 1483–1606), SETDB1 (aa 190–410), LBR (aa 1–67), ZGPAT (aa 120–271). The coding regions of chromodomain of CBX7 (aa 8–62), PWWP domain of DNMT3A (aa 275–417), WD40 repeats of WDR5 (aa 24–334) and CW domain of ZCWPW2 (aa 21–78) were also subcloned into pET28-MHL vector to generate N-terminally His-tagged fusion protein. The MBT repeats of L3MBTL1 (aa 200–522) and L3MBTL2 (aa 170–625) were subcloned into pET28GST-LIC vector to generate N-terminally GST-His-tagged fusion protein. All the plasmids were generated by ligase independent cloning (Vazyme Biotech, C112 or ABclonal Technology, RK21020). […] The molecular weight of all protein samples was measured by mass spectrometry.
(§2) For the ITC measurement, the concentrated proteins were diluted into 20 mM Tris-HCl, pH 7.5, 150 mM NaCl (ITC buffer); the lyophilized compounds were dissolved in the same buffer, and the pH value was adjusted by adding 2 M NaOH or 2 M HCl. […] Compound concentrations were calculated from the mass and the volume of the solvent. […]

In data set [2] the target is T2, CBX7 (CD) (Homo sapiens, UniProt O95931).
T2 construct: CBX7 (aa 8–62); His (N, cleaved yes); made in house; host or cells: E. coli BL21 (DE3) Codon plus RIL
Briefly: ITC binding to chromodomain of CBX7. Particulars: Fig. 1c.
Source text: as §1, §2

In data set [3] the target is T3, L3MBTL1 (MBT) (Homo sapiens, UniProt Q9Y468).
T3 construct: L3MBTL1 (aa 200–522); GST-His (N, cleaved yes); made in house; host or cells: E. coli BL21 (DE3) Codon plus RIL
Briefly: ITC binding to MBT repeats of L3MBTL1.
Source text: as §1, §2

The nature of data set [4]: Solubility of the hit compound. Format: physicochemical. On the procedure:
Screen Format 384-well black plates (Greiner, 784290)
Concentration(s) tested 2 mM compound with 2% DMSO (final concentration), 40 nM FITC-labeled H3K9me3 peptide, 8 μM tandem
Tudor domain of UHRF1 protein
Plate controls Background: FITC-labeled peptide only; negative control: FITC-labeled peptide and protein; positive control: FITC-labeled peptide and protein plus unlabeled H3K9me3 peptide
Reagent/ compound dispensing system Agilent Bravo robot
Detection instrument and software Synergy 4 microplate reader (BioTek), GraphPad […]
Assay validation/QC Z’ factor = 0.8
Correction factors Background value
Normalization All the digital values of fluorescence polarization signal subtract the background signal value.
Additional comments High concentrations (>2.5%) of DMSO might affect peptide binding and signal-to-noise ratios
Post-HTS analysis Hit criteria The signal of negative control was set as 100%. When the signal of sample was less than 50% of negative control, it was taken as hit.
Additional assay(s) The hits were further confirmed by dose response analysis with 1 mM as the highest concentration of the hits and 11 serial dilutions by 2 times, and then by isothermal titration calorimetry assay.
Confirmation of hit purity and structure The compound was repurchased (Specs, ID: AG- […]

Data set [5] has as its target T4, DNMT3A (PWWP) (Homo sapiens, UniProt Q9Y6K1).
T4 construct: DNMT3A (aa 275–417); His (N, cleaved yes); made in house; host or cells: E. coli BL21 (DE3) Codon plus RIL
Briefly: ITC binding to PWWP domain of DNMT3A. Conditions: Fig. 1c.
Source text: as §1, §2

T3 sequence (Q9Y468 268-590): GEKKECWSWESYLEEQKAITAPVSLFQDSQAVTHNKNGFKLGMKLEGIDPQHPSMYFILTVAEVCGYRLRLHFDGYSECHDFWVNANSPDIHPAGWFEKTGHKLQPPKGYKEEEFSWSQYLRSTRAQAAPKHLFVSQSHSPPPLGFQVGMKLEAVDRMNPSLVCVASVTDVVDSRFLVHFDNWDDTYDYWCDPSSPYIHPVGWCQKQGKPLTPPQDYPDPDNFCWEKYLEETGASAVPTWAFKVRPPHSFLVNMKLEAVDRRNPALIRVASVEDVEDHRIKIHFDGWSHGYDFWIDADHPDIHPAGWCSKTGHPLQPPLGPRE
T2 sequence (O95931 8-62): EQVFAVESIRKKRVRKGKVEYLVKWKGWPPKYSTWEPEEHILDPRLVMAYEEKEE
T1 sequence (Q16637 82-147 Y127F): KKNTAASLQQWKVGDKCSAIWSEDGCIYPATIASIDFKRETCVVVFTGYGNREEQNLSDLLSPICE
T4 sequence (Q9Y6K1 275-417): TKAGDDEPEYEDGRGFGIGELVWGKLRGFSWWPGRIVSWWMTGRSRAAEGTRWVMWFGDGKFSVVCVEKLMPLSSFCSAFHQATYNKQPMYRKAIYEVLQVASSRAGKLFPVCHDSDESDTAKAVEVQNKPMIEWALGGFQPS

Consider `Cn1c2c(c(=N)c3c1CCC3)CCC2` [Compound 1, 4-methyl-2,3,4,5,6,7-hexahydrodicyclopenta[b,e]pyridin-8(1H)-imine], for which the Kd in data set [1] is 4 ± 0.2 µM; in data set [2], above 244 µM; in data set [3] (ITC, Fig. 1c) it was above 100 µM; in data set [5], above 244 µM. In addition, the “ITC binding curve, MBT repeats of L3MBTL1 (in words)” value in data set [3] (Supplementary Fig. 2f) is “Weak binding”. In data set [4] (DMSO), the “concentration dissolved in DMSO” value is 100000 µM. Further, the “solubility in buffer at high concentration” value in data set [4] (buffer) is on record as “but not in buffer”.

In general, Kd refers to the concentration at which binding is half-saturated. A higher Kd goes with lower affinity.
